Measurements from patent US9750755B2, “Antimicrobial compositions and related methods” (DeLaval Holding AB, priority 2006, dated 2017).

Assays:
E. coli (ATCC 11229) = assay: Modified EN 1656 dilution neutralization test, milk as interferent, 30 seconds contact; type: cell-based, Escherichia coli; settings: 10% lactic acid used alone, typical
Description: (§1) The test bacteria were Eschericia coli (ATCC 11229), which were originally isolated from mastitis infection and obtained on commercial order from Mastitlaboratoriet, SVA, and Staphococcus aureus (ATCC6538 from Microbiologics, St. Cloud, Minn.), which was also isolated from mastitis infection.
(§2) According to a modified EN1656 dilution neutralization method, freeze dried E. coli (ATCC 11229) and S. aureus (ATCC 6538) were hydrated, grown for four days and transferred. Then bacteria were diluted to form a suspension to have an initial concentration of about 10^8 cfu/mL.
(§3) Freeze-dried pellets of E. coli (ATCC 11229) and S. aureus (ATCC 6538) were hydrated, placed in test tubes containing nutrient agar and incubated at 37° C. for 24 hours. Sterile buffer (0.25 M phosphate adjusted to pH 7.2) was used to dilute and transfer the bacteria to additional nutrient agar tubes, which were incubated for another 24 hours. S. aureus was then diluted with buffer and transferred to nutrient agar in French bottles, and E. coli was diluted and transferred to fresh nutrient agar tubes. Both types of bacteria were incubated at 37° C. for 72 hours. E. coli was then diluted and transferred to nutrient agar in French bottles. […]
(§4) The plates with bacterial populations between 25 and 250 were counted and results were expressed as logarithmic reductions according to EN 1656 test method.

S. aureus (ATCC 6538) = assay: as above; type: cell-based, Staphylococcus aureus; settings: 10% lactic acid used alone, typical
Description: as §1, §2, §3, §4

With `CC(O)C(=O)O` (stereo not drawn) [lactic acid, L(+)-2-Hydroxypropanoic acid] the “log reduction in E. coli concentration” value (E. coli (ATCC 11229)) was “five log reduction” and the “log reduction in S. aureus concentration” value (S. aureus (ATCC 6538)) was “less than a three log reduction”.
